Tests used:
Format in all cases: physicochemical
[1] = Measurement of Δn (refractive index anisotropy), wedge-shaped liquid crystal cell; conditions: wavelength 550 nm, 30° C. or lower limit temperature of nematic phase+0° C. to 10° C.; extrapolated from 1/2 mixture with L-1-1 where needed
Procedure: The Δn of each of the compounds (the compounds A-1 to A-6 and the compounds B-1 and B-2), which are the compounds to be measured, was measured by a method using a wedge-shaped liquid crystal cell described on page 202 in the Liquid crystal handbook (edited by the liquid crystal handbook editorial board, published by Maruzen Co., Ltd., 2000). Δn was defined as a measured value at a wavelength of 550 nm at 30° C. or the lower limit temperature of the nematic phase+0° C. to 10° C. In a case of a compound which is liable to crystallize or a compound having no liquid crystallinity, evaluation was carried out using a mixture thereof with the other liquid crystal compound, and Δn was estimated from the extrapolated value of the measured value thereof.
The following L-1-1 was used as the other liquid crystal compound. As the above mixture, a mixture obtained by mixing at a ratio of the compound to be measured/the L-1-1=1/2 (in terms of mass ratio) was used.
A case where Δn was 0.35 or more was evaluated as A, a case where Δn was 0.30 or more and less than 0.35 was evaluated as B, and a case where Δn was less than 0.30 was evaluated as C.

[2] = Light resistance evaluation of optically anisotropic layer (Super Xenon Weather Meter); conditions: rate of change in Re (550 nm) of layer with 25 parts compound/75 parts L-1; 5 million lx, 50 hours, 63° C., 50% RH, oxygen-blocking
Procedure: As shown below, the light resistance of the optically anisotropic layer produced using the composition containing each of the compounds A-1 to A-6 and the compounds B-1 and B-2 was evaluated.
A coating liquid having the following composition was prepared and applied by spin-coating, onto a rubbing-treated glass attached with an alignment film. Each composition was irradiated with ultraviolet rays of 300 mJ/cm^2 through a filter that cuts light having a wavelength of 350 nm or less on a hot plate which had been heated to a temperature at which a nematic phase is shown, whereby an optically anisotropic layer was produced.
The polymerizable liquid crystal compound L-1 is a mixture obtained by mixing at a ratio of the following L-1-1/L-1-2/L-1-3=84/14/2 (in terms of mass ratio).
The produced optically anisotropic layers for a light resistance test were irradiated with light using a Super Xenon Weather Meter SX75 manufactured by Suga Test Instruments Co., Ltd. Using KU-1000100 manufactured by King Seisakusho Co., Ltd. as a UV cut filter, a light resistance test was carried out by irradiation with 5 million lx of light for 50 hours under an oxygen-blocking condition. The temperature of the specimen to be tested (the temperature inside the test device) was set to 63° C. The relative humidity in the test device was 50% RH.
The Re of the optically anisotropic layer before and after the light resistance test was measured, the light resistance in a case where the rate of change in Re described below was less than 10% was evaluated as A, and the light resistance in a case where the rate of change in Re was 10% or more was evaluated as B. The smaller the rate of change in Re, the more excellent the light resistance.
Rate of change in Re (%)=[100×{|(Re after test)−(Re before test)|}/(Re before test)]
Re was measured with Axoscan manufactured by Axometrics Inc. at a wavelength of 550 nm, and the measurement temperature was set to room temperature.

[3] = Evaluation of solubility in methyl ethyl ketone; conditions: precipitation concentration in methyl ethyl ketone at room temperature (25° C.)
Procedure: The solubility of each of the compounds (the compounds A-1 to A-6 and the compounds B-1 and B-2) in methyl ethyl ketone was evaluated.

[4] = Evaluation of liquid crystallinity (hot stage, polarization microscope); set-up: key: A case of having liquid crystallinity was evaluated as A; a case of having no liquid crystallinity was evaluated as B; conditions: heated on a hot stage, observed with a polarization microscope
Procedure: The respective compounds (the compounds A-1 to A-6 and the compounds B-1 and B-2) were heated on a hot stage and observed with a polarization microscope, and the phase transition temperature was measured to evaluate the presence or absence of the liquid crystallinity. A case of having liquid crystallinity was evaluated as A, and a case of having no liquid crystallinity was evaluated as B. The results are shown in Table 1.
Since B-1 has melting points of 200° C. or higher and undergo a polymerization reaction during heating, liquid crystallinity could not be evaluated.

What does the source list for C=CC(=O)OCCc1ccc(C#Cc2ccc(-c3ccc(C#Cc4ccc(CCOC(=O)C=C)cc4)cc3C)c(C)c2)cc1 [Compound A-1]?
Δn [1]: B (a case where Δn was 0.30 or more and less than 0.35 was evaluated as B); Light resistance [2]: A (the light resistance in a case where the rate of change in Re described below was less than 10% was evaluated as A); Solubility [3]: A (the solubility in a case where the precipitation concentration was 10% by mass or more was evaluated as A); Liquid crystallinity [4]: A

What does the source list for C=CC(=O)OCCSc1ccc(C#Cc2ccc(-c3ccc(C#Cc4ccc(SCCOC(=O)C=C)cc4)cc3C)c(C)c2)cc1 [Compound A-2]?
Δn [1]: A (A case where Δn was 0.35 or more was evaluated as A); Light resistance [2]: A (the light resistance in a case where the rate of change in Re described below was less than 10% was evaluated as A); Solubility [3]: A (the solubility in a case where the precipitation concentration was 10% by mass or more was evaluated as A); Liquid crystallinity [4]: A

Which Δn [1] does the source give for C=CC(=O)OCCCCOc1ccc(C#Cc2ccc(-c3ccc(C#Cc4ccc(OCCCCOC(=O)C=C)cc4)cc3C)c(C)c2)cc1 [Compound A-3] here?
The Δn was “B (a case where Δn was 0.30 or more and less than 0.35 was evaluated as B)”.

What about the Light resistance [2] of the same molecule?
The Light resistance was “A (the light resistance in a case where the rate of change in Re described below was less than 10% was evaluated as A)”.

And the Solubility [3]?
The Solubility was “A (the solubility in a case where the precipitation concentration was 10% by mass or more was evaluated as A)”.

And the Liquid crystallinity [4]?
Its Liquid crystallinity is “A”.

Which Δn [1] does the source give for C=CC(=O)OCCc1ccc(C#Cc2cnc(-c3ncc(C#Cc4ccc(CCOC(=O)C=C)cc4)cc3C)c(C)c2)cc1 [Compound A-6] here?
Its Δn is “B (a case where Δn was 0.30 or more and less than 0.35 was evaluated as B)”.

What about the Light resistance [2] of the same molecule?
The Light resistance was “A (the light resistance in a case where the rate of change in Re described below was less than 10% was evaluated as A)”.

What about the Solubility [3] of the same molecule?
Its Solubility is “A (the solubility in a case where the precipitation concentration was 10% by mass or more was evaluated as A)”.

And the Liquid crystallinity [4]?
Its Liquid crystallinity is “A”.
